The values that follow come from patent publication US7166625B2, “Method for treating fibrotic diseases and other indications” (Alteon, Inc., priority 2000, dated 2007).

Where a name gives a salt, the structure may show the parent alone.

The conditions of assay [1]: literature series of mainly imidazolium compounds; cited from earlier work.
The test system of assay [2] is Rats. Put plainly: Rat myocardial infarct after ligation of the left anterior descending coronary artery. The class given is in vivo. To be noted: 10 mg/kg daily intraperitoneal, 30 days before and 14 days after coronary ligation. How it is done:
Rats received a daily intraperitoneal dose of 10 mg/kg 3-[2-phenyl-2-oxoethyl]-4,5-dimethyl-thiazolium salt (compound A) (n=14) or placebo (n=15) for 30 days. The animals then underwent a thoracotomy and the left anterior descending coronary artery ligated. The chest was then closed and the animals allowed to recover for 14 days while continuing to be treated with compound A or placebo. The animals were then sacrificed and the hearts removed for histological examination. The weight of the infarcted tissue was 0.16±0.04 g for the placebo treated animals compared to 0.11±0.05 g for the compound A treated animals (p=0.04).

Assay [3] concerns elderly patients with pulse pressures greater than 60 mm Hg. Nature of the assay: Phase IIa clinical trial. The class given is in vivo, human. The source says:
When the heart pumps blood into the vascular system, the ability of the arteries to expand helps to push blood through the body. When arteries become stiff, as they do in the natural process of aging, the ability of the arteries to expand is diminished and also has consequences for the heart. The heart has to work harder to pump the blood into the stiff arteries, and eventually hypertrophies (enlarges in size) to accomplish this. A hypertrophied heart is an inefficient pump, and is one of the disorders that leads to congestive heart failure. […] The potential clinical benefit of this is to lessen the effort that the heart must expend to push blood throughout the body. The effect is also believed to contribute to preventing hypertrophy and subsequent inefficiency of the heart, which inefficiency would contribute to congestive heart failure.
Atherosclerosis is a disease that involves deposition of blood lipids in plaque in the arteries throughout the body. In coronary arteries, accumulation of plaque progressively leads to reduced coronary flow, with occlusion of the arteries causing focal death of cardiac tissue (myocardial infarction, heart attack). If the amount of tissue that dies is large enough, death ensures. In a Phase IIa trial, one compound believed to work by a mechanism shared by the compounds of the invention, 3-[2-phenyl-2-oxoethyl]-4,5-dimethyl-thiazolium salt, […] the amount of circulating triglycerides (lipids). […] Reducing local deposits of plaque should eventually lessen the risk of myocardial infarction and death due to heart attacks.
Pulse pressure is the difference between systolic and diastolic blood pressure. In a young human, systolic pressure is typically 120 mm Hg and diastolic pressure is 80 mm Hg, resulting in a pulse pressure of 40 mm Hg. With age, in many individuals pulse pressure increases, largely due to the increase in systolic pressure that results from stiff vessel disease. In individuals with pulse pressure greater than 60 mm Hg there is an increased risk of death from cardiovascular morbidities.

For assay [4], the system named is dog model for diabetes. Put plainly: Dog model for diabetes, ventricular elasticity. It counts as in vivo. The source says: (§1) Cardiovascular risk correlates more closely with the systolic and the pulse pressure than with the diastolic pressure. In diabetic patients, the cardiovascular risk profile of diabetic patients is strongly correlated to duration of diabetes, glycemic control and blood pressure. Structural matrix proteins contribute to the function of vessels and the heart, and changes in the physical behavior of cardiovascular walls are believed to be important determinants of circulatory function. In elderly individuals, the loss of compliance in the aorta leads to isolated systolic hypertension, which in turn expands the arterial wall and thereby diminishes the dynamic range of elasticity. […] Treatment with 3-[2-phenyl-2-oxoethyl]-4,5-dimethyl-thiazolium salt lead to a reduction in the mass of collagen in cardiovascular tissues.

For assay [5], the system named is rodents, canines and primates. Nature of the assay: In vivo studies of vascular stiffening and collagen mass in cardiovascular tissues.
Source text: as §1

The test system of assay [6] is Type IV collagen. Put plainly: In situ hybridization studies, Type IV collagen expression.
Source text: as §1

In assay [7] the test system is TGFbeta. Nature of the assay: In situ hybridization studies, TGFbeta expression.
Source text: as §1

For “3-[2-(3,5-Dimethoxyphenyl)-2-oxoethyl]-oxazolium”, the glucose lowering effect result in assay [1] was “inactive”.
For `Cc1sc[n+](CC(=O)c2ccccc2)c1C` [compound A, 3-[2-phenyl-2-oxoethyl]-4,5-dimethyl-thiazolium salt], the “thickness of the ventricular wall in the infarcted zone” value in assay [2] (p=0.09 vs placebo) is 2.56±0.22 mm. Also, the “weight of the infarcted tissue” value in assay [2] (placebo 0.16±0.04 g, p=0.04) stood at 0.11 ± 0.05 g. Besides, the “stiffness of arteries, measured by the ratio of stroke volume (ml) to pulse pressure (mm Hg)” value in assay [3] (Phase IIa clinical trial) is reported as “reverse the stiffness of arteries”. In addition, the “amount of circulating triglycerides (lipids)” value in assay [3] (Phase IIa trial) was “increased”. Besides, the pulse pressure entry in assay [3] (Phase IIa trial, elderly patients with pulse pressures greater than 60 mm Hg, statistically significant) is reported as “reduced”. Moreover, in assay [4], the “end diastolic pressure and end diastolic volume, indicators of ventricular elasticity” value was “returned to a value at about the mid-point between the disease impaired value and the value for control dogs”. Further, in assay [5] (in vivo), the “mass of collagen in cardiovascular tissues” value is reported as “reduction”. Further, the vascular stiffening entry in assay [5] (in vivo studies in rodents, canines and primates) is reported as “substantially ameliorating vascular stiffening”. In addition, the “expression of Type IV collagen” value in assay [6] is reported as “reduces”. In addition, the “expression of TGFbeta” value in assay [7] is “reduces”.
